These results are taken from patent EP0536424A1, “NOVEL BENZOPYRAN DERIVATIVE” (Japan Tobacco Inc., priority 1991, dated 1992).

The subject of assay [1] is aorta thoracica of a male Wister rat. The assay can be described thus: Blood vessel relaxing action (relaxation of phenylephrine-contracted, endothelium-denuded spiral strip). Conditions: concentration inhibiting 50% of the contraction achieved by phenylephrine (10⁻⁶ M), compound 10⁻⁸ to 10⁻⁵ M added cumulatively, 37°C, read-out: IC₅₀. As for the experimental part: Preparation of the extracted blood vessel sample and the experiment were conducted by the methods of Toda et al. described in J. Cardiovasc. Pharmacol., 7,1118 (1985). The aorta thoracica of a male Wister rat was used as a sample. To be more specific, a spiral piece was prepared by peeling endothelium about 1 cm long from the artery to provide the sample. The endothelium was peeled off by rubbing with a swab. A Krebs-Hensterite solution of 37°C saturated with 95% O₂ and 5% CO₂ was used as a nutrient solution. After application of 1g as suspending load to the sample, changes in tension were measured by rectigraph via an isometric transducer. After the aorta thoracica was contracted by phenylephrine (10⁻⁶ M), a compound to be examined (an example compound) of 10⁻⁸ to 10⁻⁵ M was cumulatively added to determine the relaxing action of the compound quantitatively. The relaxing effect of the example compound was determined in terms of the concentration IC₅₀ of the compound required for inhibiting 50% of the contraction achieved by phenylephrine (10⁻⁶ M). Lema Kalin was used as reference compound A. On the other hand, reference compound B was provided by N'-cyano-N-(trans-6-cyano-3,4-dihydro-2,2-dimethyl-3-hydroxy-2H-1-benzopyran-4-yl)-benzamidine. […]

The next assay relates to coronary blood flow rate. The assay can be described thus: Action on the coronary blood flow rate in dog (anesthetized, left coronary artery perfused with femoral arterial blood). The conditions noted are these: administered into the coronary artery; for ED 50: dose increasing coronary blood flow rate by 50% of the reaction caused by niphedipine 1 µg (set at 100%); for Durationng: time during which the compound produced at least 50% of its efficacy at the ED₅₀ dosage. Format: in vivo. As for the experimental part:
Dogs with ether sex were anesthetized with pentobarbital (30 mg/kg,intravenous administration), followed by intravenous heparin administration (500 U/kg) to the dogs under artificial respiration. Then, according to Yago's method described in Folia pharmacol. japon., 57,380 (1961), the left coronary artery was perfused with the right femoral arterial blood so as to measure the blood perfusion amount with an electromagnetic blood flow meter. The example compound was administered into the coronary artery by using a micro syringe just before a stainless steel cannula inserted into the coronary artery. The increase in the coronary blood flow rate caused by the example compound was determined by standardizing the reactivity among the specimen subject, with the reaction caused by the niphedipine administration (1 µg) into the coronary artery of the specimen subject being set at 100%. To be more specific, the intensity of the action due to the example compound was determined in terms of ED₅₀ required for increasing the coronary blood flow rate by 50% on the basis of the reaction caused by niphedipine administered into the coronary artery in an amount of 1 µg. Further, the duration of the effect produced by the example compound was determined in terms of the time (minutes) during which the compound produced at least 50% of efficacy on the basis that the efficacy of the compound in the ED₅₀ dosage noted above was set at 100%. […]

Read-outs that look alike come from different tables or passages of the source.

In the case of `CC1(C)Oc2ccc(C#N)cc2[C@@H](NC(=NC#N)c2cccnc2)[C@@H]1O` (relative stereo) [Example 3, N'-cyano-N-(trans-6-cyano-3,4-dihydro-2,2-dimethyl-3-hydroxy-2H-1benzopyran-4-yl]-3-pyridinecarboxamidine], the IC50 in assay [1] (Rattus norvegicus) came out at 600 nM. In the assay on coronary blood flow rate, the ED 50 stood at 1.9 µg and the Durationng stood at 4.0 minuted.
For `CC1(C)Oc2ccc(C#N)cc2[C@@H](NC(=N[N+](=O)[O-])c2ccccn2)[C@@H]1O` (relative stereo) [Example 14, N-(trans-6-cyano-3,4-dihydro-2,2-dimethyl-3-hydroxy-2H-1-benzopyran-4yl)-N'-nitro-2-pyridinecarboxamidine], in assay [1] (Rattus norvegicus), the IC50 was determined as 1000 nM.
`CC1(C)Oc2ccc(C#N)cc2[C@@H](NC(=NC#N)c2ccc(F)cc2)[C@@H]1O` (relative stereo) [Example 16, N'-cyano-N-(trans-6-cyano-3,4-dihydro-2,2-dimethyl-3-hydroxy-2H-1-benzopyran-4-yl)-4-fluorobenzamidine]: the IC50 in assay [1] (Rattus norvegicus) amounted to 60 nM. In the assay with coronary blood flow rate, this compound gave an ED 50 of 1.5 µg and a Durationng of 2.5 minuted.
For `CC1(C)Oc2ccc(C#N)cc2[C@@H](NC(=NC#N)c2ccccc2)[C@@H]1O` (relative stereo) [Reference Compound B, N'-cyano-N-(trans-6-cyano-3,4-dihydro-2,2-dimethyl-3-hydroxy-2H-1-benzopyran-4-yl)-benzamidine, reference compound], in that order: 1000 nM, 4.2 µg and 1.9 minuted.
As to `CC1(C)Oc2ccc(C#N)cc2[C@@H](N2CCCC2=O)[C@@H]1O` [Reference Compound A, Lema Kalin, reference compound], the IC50 in assay [1] was 400 nM. Further, in the assay on coronary blood flow rate, the ED 50 worked out at 1.1 µg and the Durationng is listed as 2.5 minuted.
